According to paper PMC6283615, “Anilinoquinoline based inhibitors of trypanosomatid proliferation” (PLoS Neglected Tropical Diseases, 2018):
pEC50: −log10 of the molar value. “Also recorded” adds a separate entry of the source. Where two headings read alike, the source gives them in different places.

How the values were obtained:
[1] = Plasma and brain pharmacokinetics after single i.p. dose; type: in vivo; conditions: 10 mg/kg i.p., female BALB/c mice; for Kp: female, BALB/c, brain/plasma, 10 mg/kg
Protocol: PK parameters were measured for both brain and plasma following a single intraperitoneal (i.p.) dose of 10 mg/kg (see Supplementary information, S5 and S6 Tables).
Table S5. Pharmacokinetic parameters of NEU-1060 (compound 14) in plasma and brain following a single intraperitoneal administration in female BALB/c mice (Dose:
Compound Dose Route Matrix Tmax Cmax AUClast AUCinf […]
*The density of brain homogenate was considered as 1 which is equivalent to plasma density (1); Brain conc. and exposure expressed as ng/g and hr.ng/g, respectively.
NC – not calculated due to improper elimination phase
Table S6. Brain to plasma exposure ratio of NEU-1060 (compound 14) after a single intraperitoneal administration in female BALB/c mice (Dose: 10 mg/kg)
Compound Dose Route Matrix Cmax Cmax AUClast Brain to plasma
(mg/kg) (ng/mL) ratio (hr*ng/mL) exposure ratio

[2] = test system: T. b. brucei (strain 427); assay: T. b. brucei proliferation assay (PrestoBlue, 48 h); type: cell-based, Trypanosoma brucei brucei; conditions: Trypanosoma brucei
Procedure, shortened: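 T. b. brucei strain 427, 2.5×10^3 per well in HMI-9, exposed to compounds from 50 μM in 1:2 dilutions, in triplicate. Incubated 48 h at 37°C, 5% CO2. PrestoBlue added for 4 h more, fluorescence read at ex 530/em 590 nm.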

[3] = Human plasma protein binding; type: in vitro ADME; conditions: read-out: Human PPB (converted)
T. brucei brucei CA427 = assay: Murine model of acute HAT (T. b. brucei infected mice); type: in vivo
Protocol: Bloodstream form (BSF) T. brucei brucei CA427 parasites were maintained at densities below 1×10^6 cells/mL in HMI-9 media supplemented with 10% fetal bovine serum (Atlanta Biologicals), 10% SERUM PLUS (Sigma), and 1% Antibiotic-Antimycotic Solution (Corning cellgro) at 37°C, 5% CO2 [18]. Parasites were centrifuged at 5000 xg for 3 min at room temperature and resuspended in cold 1xPBS containing 1% glucose to yield a solution of 2.5×10^6 cells/mL. Correct cell density following resuspension was confirmed using a Z2 Coulter Counter (Beckman). Parasite viability was observed by motility with a Neubauer Bright-line hemocytometer. Cells were kept on ice until infection.
Compound 14 –on day 0, female Swiss-Webster mice (8–10 weeks old, 20–25 g, n = 4 per group) (Harlan) were infected i.p. with 2.5×10^5 trypanosomes by injecting 100 μL of resuspension using 26G needles. Day 1 to 3 post-infection, mice received a single i.p. dose of either drug vehicle (dimethylsulfoxide, 3.4 mL/kg) (Fisher Scientific) or drug (14, 25 mg/kg). Parasitemia was determined on days 2 and 3 post-infection by collecting 3 μL of blood from the tail vein.
Day 1 to 3 post-infection, mice received a single p.o. dose of either drug vehicle (10% NMP and 90% PEG, 10 mL/kg) (Fisher Scientific) or drug (22, 60 mg/kg). From days 4 to 6, the dose was increased to 70 mg/kg for the mice in the treatment group. Parasitemia was determined on days 3 to 6 post-infection by collecting 3 μL of blood from the tail vein.
Blood samples were mixed with 21 μL of RBC Lysis Solution (Qiagen) and incubated at room temperature for 15–45 min prior to observing for parasites by hemocytometer. Humane euthanasia by CO2 overdose followed by incision to form a bilateral pneumothorax was conducted on mice at study termination. All animal experimental protocols were approved and performed in accordance with the guidelines of the Institutional Animal Care and Use Committee (IACUC) at the University of Georgia.

[4] = Rat hepatocyte intrinsic clearance; type: in vitro ADME; conditions: hepatocytes
[5] = Human liver microsome intrinsic clearance; type: in vitro ADME
HepG2 cells = assay: Drug toxicity to HepG2 cells (MTT, 48 h); type: cell-based, human; conditions: tested concentration ranges based on compound solubility
Procedure, shortened: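 HepG2 cells plated overnight, then exposed 48 h to twelve 1.6-fold dilutions (57–10,000 ng/mL) in duplicate at 37° C, 5% CO2. MTT added for 1 h at room temperature; formazan dissolved in acidified isopropanol, absorbance read.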

For CN1CCN(c2ncc(-c3ccc4c(Nc5ccc(OCc6cccc(F)c6)c(Cl)c5)ccnc4c3)cn2)CC1 [Compound 14], the “Brain to plasma exposure ratio” value ([1]; AUClast based, listed as NEU-1060, 10 mg/kg) was 7.43, the AUClast ([1]; brain) was 3474.83 ng·h/g and the Kp ([1]; mouse, ip, AUClast based, read-out: Brain to plasma exposure ratio) was 7.4. For the same compound, the Kp ([1]; mouse, ip, brain to plasma, read-out: Cmax ratio) was 2.85, the Cmax ([1]; mouse, ip, brain) was 211 ng/g and the Tmax ([1]; mouse, ip, brain) was 4 h. For the same compound, the AUC(0-t) ([1]; mouse, ip, plasma) was 468 ng·h/mL, the Cmax ([1]; mouse, ip, plasma) was 74 ng/mL and the Tmax ([1]; mouse, ip, plasma) was 0.25 h. The pEC50 [2] was 8.22, the fraction unbound [3] was under 0.01 and the “Toxicity in infected mice” value (T. brucei brucei CA427; 25 mg/kg i.p.) was “no evidence of toxicity”. For the same compound, the “Mice showing 10-fold reduction in parasitemia” value (T. brucei brucei CA427; 25 mg/kg i.p., n = 4) was 75%, the “Mice with no detectable parasitemia” value (T. brucei brucei CA427; 25 mg/kg i.p., n = 4) was “one had no detectable parasitemia” and the Reduction in parasitemia (T. brucei brucei CA427; 25 mg/kg i.p., vs DMSO vehicle) was 10 fold. The hepatocyte CLint [4] was 24 µL/min/1e6 cells and the microsomal CLint ([5]; liver microsomes) was 54 µL/min/mg.
In the case of CN1CCN(c2ncc(-c3ccc4c(Nc5cnccn5)ccnc4c3)cn2)CC1 [Compound 22], the “Parasitemia vs control group” value (T. brucei brucei CA427; p.o. once daily 60 mg/kg days 1-3, then 70 mg/kg, by day 5, vehicle 10% NMP 90% PEG) was “no statistically significant difference; also recorded: failed to affect parasitemia”, the “Toxicity in infected mice” value (T. brucei brucei CA427; p.o. once daily 60 mg/kg, first three days) was “no signs of toxicity” and the hepatocyte CLint [4] was 130 µL/min/1e6 cells. The “HepG2 TC50” value (HepG2 cells) was over 38000 nM and the “Human Liver Microsome CLint” value [5] was 180 µL/min/mg.
